Assay results: patent US11726079B2, “Lighting systems and methods of using lighting systems for in vitro potency assay for Photofrin” (Concordia Laboratories, Inc., priority 2012, dated 2023)
Where “and” joins values, the source holds several entries; their conditions need not be identical. Equal entries are not always repeated. Marks after values point to notes of the source that are not given here.

Test system: A549 human lung carcinoma cells
Assay: In vitro potency assay for Photofrin®: A549 cells, 4 h drug absorption, wash, 10 min irradiation at 400-650 nm, 24 h, XTT viability, 4PL EC50
Type: cell-based
Parameters: key to EC50-XTT / EC50 STD / EC50 Test: EC50 as Photofrin concentration in μg/mL (4PL inflection point)
Conditions: for EC50 Test / Black plate EC50 / EC50 STD: in µg/mL; for Black plate EC50: black plate with black lid; for Clear Plate EC50: clear 96-well plate; for Potency of Test Sample / Potency of Test Sample, Mean / Experimental Potency: ratio EC50(standard)/EC50(test); for Potency of Test Sample / Potency of Test Sample, Mean: expected 0.5; for EC50 STD: standard sample (70 μg/mL high test drug concentration)
Procedure: Cell passaging of A549 cells is performed using fixed seeding densities to reduce assay variation resulting from cell culture conditions. […] Working in very low light conditions, Photofrin® is reconstituted in normal saline to 2.5 mg/mL and diluted further in culture medium at twice the desired final assay concentration, typically 140 μg/mL. A series of two-fold dilutions were then prepared from the 140 μg/mL solution and the diluted drug was added to the cells at 1:1 (v/v) according to the diagram shown in FIG. 11.
[…] The plate is then removed from the incubator, the drug is aspirated, the wells are washed with Dulbecco's phosphate buffered saline (DPBS) and fresh, pre-warmed medium is added to the wells. […] […] The wells covered with foil strips are important controls for the activity of Photofrin® in the absence of irradiation and the effect of light on the cells in the absence of drug.
The optical absorbance of the wells in column 1 (high drug concentration, no cells) is evaluated for absorption at 450 nm to ensure that the drug is not interfering with the XTT assay. The percent viability of each of the wells in columns 2-9 and 11 is calculated relative to the mean value of column 10 (cell control, no drug, no light). For each dose response obtained, a four parameter logistic (4PL) nonlinear regression analysis is performed of the percent viability versus the log-Photofrin® concentration. The point of inflection of the regression curve (C value) is defined as the EC50 and used in the calculation of relative potency. Curve fitting and calculation of the EC50 is performed with Softmax v5.4.2 (Molecular Devices, Inc.) or Prism v.5.04 (GraphPad, Software Inc.) software. The mean percent viability of columns 9 and 11 is also calculated.
• 1. Materials and Reagents • 1.1. A549 Human Lung Carcinoma (ATCC—Cat. No.: CCL-185) • 1.2. 25 cm^2 Flasks (Corning—Cat. No.: 431463, or equivalent) • 1.3. 75 cm^2 Flasks (Corning—Cat. No.: 431464, or equivalent) • 1.4. 50 mL tubes (Fisher Scientific—Cat. No. 17-512F, or equivalent) • 1.5. Hemacytometer • 1.6. RPMI-1640 (+) phenol red (Lonza—Cat. No.: 12-167F, or equivalent) • 1.7. HI-FBS (Gibco—Life Technologies—Cat No.: 10082-147, or equivalent) • 1.8. 200 mM L-Glutamine (Lonza—Cat. No.: 17-605E, or equivalent) • 1.9. 0.25% Trypsin-EDTA (Gibco—Cat. No.: 25200-056, or equivalent) • 2. Instruments • 2.1. Forma Scientific centrifuge with swinging bucket rotor (Model 5682, or equivalent) • 2.2. Water bath set at 37° C. • 2.3. […] Prepared Reagents • 3.1. RPMI-1640 Complete Media • 3.1.1. 500 mL bottle of RPMI-1640 basal media containing phenol red • 3.1.2. Add 50 mL HI-FBS • 3.1.3. Add 5.5 mL of 200 mM L-Glutamine • 4. Procedure • 4.1. Remove one vial of A549 lung carcinoma cells from liquid nitrogen storage and after ensuring that the vial is tightly closed, rapidly thaw vial by holding all but the top of the vial submerged in a 37° C. water bath until the vial contents begins to thaw but while ice still remains. • 4.2. Liberally spray the vial with 70% ethanol, wipe with tissue, and place into a laminar flow hood. • 4.3. Transfer the contents of the vial to a 50 mL conical tube containing 9 mL RPMI-1640 complete medium containing phenol red (Step 3.1) (hereafter referred to as complete medium in this method). • 4.4. Centrifuge the tube in a swing bucket rotor set at 1200 RPM (220 RCF) for five minutes at room temperature. • 4.5. Discard supernatant and gently flick the tube to resuspend the cells in the residual volume left in the tube. • 4.6. Add 5 mL complete medium, transfer the cell solution to a 25 cm^2 flask, and then place the flask into a 37° C. incubator with 5% CO2. • 4.7. Monitor the flask daily and when the cells reach approximately 80% confluence, remove the media, and wash the cells by adding 2 mL DPBS to the flask. Ensure that all cells are rinsed and discard the DPBS. • 4.8. Add 1 mL 0.25% trypsin-EDTA to prewash the cells, tip flask to coat all cells, and discard the trypsin. • 4.9. […]

[1] = seeding density 0.8 × 10^4 cells/well
[2] = seeding density 1.2 × 10^4 cells/well
[3] = seeding density 1.9 × 10^4 cells/well

- EC50 Test (Test sample of theoretical potency 0.5): 21.3 and 21.7
- EC50 Test (Test sample of theoretical potency 2): 5.16
- EC50 Test (Test sample of theoretical potency 4 (dissolved in one-fourth the nominal volume), confidence interval wide due to poor curve fitting): 2.36*
- Test Sample EC50 (Test sample, 35 μg/mL high test concentration regressed as if 70 μg/mL, Plate 1 (placement Standard, Test; left to right dilution; controls in columns 9-11)): 21.2 µg/mL
- Test Sample EC50 (Test sample, 35 μg/mL high test concentration regressed as if 70 μg/mL, Plate 2 (placement Test, Standard; left to right dilution; controls in columns 9-11)): 22.2 µg/mL
- Test Sample EC50 (Test sample, 35 μg/mL high test concentration regressed as if 70 μg/mL, Plate 3 (right to left dilution; controls in columns 9-11)): 21.5 µg/mL
- Test Sample EC50 (Test sample, 35 μg/mL high test concentration regressed as if 70 μg/mL, Plate 4 (placement Standard, Test; left to right dilution; controls in columns 9-11)): 21.5 µg/mL
- Test Sample EC50 (Test sample, 35 μg/mL high test concentration regressed as if 70 μg/mL, Plate 5 (left to right dilution; controls in columns 2-4)): 20.1 µg/mL
- Test Sample EC50, Mean (Test sample, 35 μg/mL high test concentration regressed as if 70 μg/mL, mean across Plates 1-5 of positional analysis): 21.3 µg/mL
- Black plate EC50 (experiment PIN-004, nine point dose response 250-0.977 μg/m): 8.08
- Black plate EC50 (experiment PIN-008, six point dose response 30.0-1.09 μg/mL): 10.1 and 9.48 and 9.59
- Black plate EC50, Mean (black plate, mean of PIN-004 and PIN-008 values): 9.31 µg/mL
- Clear Plate EC50 (experiment PIN-004, nine point dose response 250-0.977 μg/m, in µg/mL (unit assumed)): 1.87
- Clear Plate EC50 (experiment PIN-008, six point dose response 30.0-1.09 μg/mL, in µg/mL (unit assumed)): 2.49 and 2.46 and 2.33
- Clear Plate EC50, Mean (clear plate, mean of PIN-004 and PIN-008 values): 2.29 µg/mL
- EC50-XTT (experiment PIN-009, XTT endpoint, in µg/mL (unit assumed)): 9.48 and 9.42
- EC50-XTT, Mean (experiment PIN-009, XTT endpoint, mean): 9.45 µg/mL
- EC50 STD (assayed with Test sample of theoretical potency 0.25): 11.6
- EC50 STD (assayed with Test sample of theoretical potency 2): 10.6
- EC50 STD (assayed with Test sample of theoretical potency 4): 10.3
Substance: porfimer sodium [Photofrin®]
- Potency of Test Sample (A549 cells at passage P10): 0.556
- Potency of Test Sample (A549 cells at passage P17): 0.526
- Potency of Test Sample (Inter-operator Assay, AB-1): 0.465
- Potency of Test Sample (Inter-operator Assay, AB-2): 0.564
- Potency of Test Sample, Mean (Inter-operator Assay, mean of operator AB plates): 0.515
- Potency of Test Sample, Mean (Inter-operator Assay, mean of operator KP plates): 0.487
- Potency of Test Sample (Inter-operator Assay, operator KP, both plates KP-1): 0.470 and 0.503
- Potency of Test Sample (absorption time 3.5 hours): 0.533
- Potency of Test Sample (absorption time 4.0 hours): 0.507
- Potency of Test Sample (absorption time 4.5 hours): 0.573
- Potency of Test Sample (irradiation time 8 minutes): 0.490
- Potency of Test Sample (irradiation time 9 minutes): 0.476
- Potency of Test Sample (irradiation time 10 minutes): 0.487
- Potency of Test Sample (irradiation time 11 minutes): 0.555
- Potency of Test Sample (irradiation time 12 minutes): 0.514
- Potency of Test Sample (operator AB Pilot Assay-1): 0.411
- Potency of Test Sample (operator AB Pilot Assay-2): 0.537
- Potency of Test Sample (post-irradiation incubation time 22 hours): 0.549
- Potency of Test Sample (post-irradiation incubation time 24 hours): 0.54
- Potency of Test Sample (post-irradiation incubation time 26 hours): 0.575
- Potency of Test Sample (post-irradiation temperature 35° C.): 0.448
- Potency of Test Sample (post-irradiation temperature 37° C. (nominal, two experiments)): 0.543 and 0.495
- Potency of Test Sample (post-irradiation temperature 39° C.): 0.516
- Potency of Test Sample [1]: 0.521
- Potency of Test Sample [2]: 0.391
- Potency of Test Sample [3]: 0.526
- Experimental Potency (theoretical potency 0.5): 0.526 and 0.516
- Experimental Potency (theoretical potency 2): 2.05
- Experimental Potency (theoretical potency 4, wide confidence interval on EC50): 4.36*
- Mean Potency (ratio of the EC50(standard)/EC50(test), positional analysis, Plates 1-5, Test sample is Standard diluted two-fold): 0.516
- EC50 STD [1]: 11.0
- EC50 STD [2]: 10.9
- EC50 STD [3]: 11.2
- killing of the cells (treatment of cells followed by irradiation at 400-650 nm): dose-dependent killing of the cells
